Test results as given in paper PMC10535004, “Investigation of Peptides for Molecular Recognition of C-Reactive Protein–Theoretical and Experimental Studies” (Analytical Chemistry, 2023).
“Also recorded” adds a separate entry of the source.

B1: P9 clone (M13 phage exposing the P9 peptide) (other)
chain: SWFSDWDLELHA
notes: peptide exposed on the M13 phage clone P9; also called P9 phage; source: M13 bacteriophage clone from phage display; not shown: M13 bacteriophage (peptide exposed on the phage)
B2: P3 clone (M13 phage exposing the P3 peptide) (other)
chain: VHWDFRQWWQPS
notes: peptide exposed on the M13 phage clone P3; the library is described in the Supporting Information; also called P3 phage; source: M13 bacteriophage clone from phage display; not shown: M13 bacteriophage (peptide exposed on the phage)
B3: P2 peptide (peptide)
peptide: GGSDPEGMQGNY
notes: 12-mer identified by phage display against CRP; Immobilised on gold plates for PM-IRRAS; method is in the Supporting Information; also called peptide P2; source: synthetic peptide
B4: P3 peptide (peptide)
peptide: VHWDFRQWWQPS
notes: 12-mer identified by phage display against CRP; immobilised on gold plates for PM-IRRAS, whose method is in the Supporting Information; also called peptide P3; source: synthetic peptide

Assays:
C-reactive protein (CRP) = target: T1, C-reactive protein (CRP) (Homo sapiens, UniProt P02741); test: PM-IRRAS of protein-peptide complex on gold; type: binding; conditions: complex immobilized on gold; peptide 100 μg mL-1, CRP 50 μg mL-1 in PBS
T1 construct: purchased Biorbyt (UK)
T1 sequence (P02741 19-224): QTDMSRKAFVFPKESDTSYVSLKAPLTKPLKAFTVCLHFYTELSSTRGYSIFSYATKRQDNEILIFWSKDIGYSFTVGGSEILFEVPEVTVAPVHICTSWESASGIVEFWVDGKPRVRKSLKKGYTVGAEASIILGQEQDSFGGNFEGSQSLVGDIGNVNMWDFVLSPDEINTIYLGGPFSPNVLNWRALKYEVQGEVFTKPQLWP
Description: (§1) 2.2. PM-IRRS analysis (polarisation modulation infrared reflection absorption
(§2) Three types o f samples were prepared and analysed: (a) peptide solution in PBS (100 μg mL-1), (b)
(§3) CRP solution in PBS (50 μg mL-1), and (c) protein -peptide complex. The complex was prepared

[1] = TEM analysis of peptide fibers; type: physicochemical; conditions: 1 mg mL-1 in PBS
Description: 2. Surface characterisation
Suspensions of selected phages (10^9 pfu mL-1) in PBS and corresponding peptides (1 mg mL-1) in PBS were adsorbed onto carbon-coated copper grids (Sigma) for 3 min, stained with 1.5% uracyl acetate. The samples were photographed using Tecani Spirit BioTWIN microscope at 120kV, and images were processed by iTEM program. […]

[2] = PM-IRRAS of peptide layers on gold; type: physicochemical; conditions: for secondary structure on gold (in words): amide I band, peptide 100 μg mL-1 in PBS
Description: as §1, §2, §3

C-reactive protein [3] = target: T2, C-reactive protein (human, UniProt P02741 19-224); test: ELISA; phage clones on CRP, phages detected by the enzymatic reaction of tagged anti-M13 antibodies, absorbance at 450 nm, compared with WT phage
T2 construct: C-reactive protein (CRP), cyclic pentamer of five identical, noncovalently connected subunits of 206 amino acids each (printed); PDB 3PVO was used only for docking; also called CRP
T2 sequence (looked up): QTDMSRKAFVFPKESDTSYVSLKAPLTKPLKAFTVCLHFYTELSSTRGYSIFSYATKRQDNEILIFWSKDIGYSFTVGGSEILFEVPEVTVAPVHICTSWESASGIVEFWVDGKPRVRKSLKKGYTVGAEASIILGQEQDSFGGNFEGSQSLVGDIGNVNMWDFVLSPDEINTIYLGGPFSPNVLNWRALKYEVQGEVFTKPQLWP

C-reactive protein [4] = target: T2, C-reactive protein; test: PM-IRRAS; peptides immobilised on gold plates; spectra of peptide, CRP and the protein-peptide complex compared; conditions: both partners purified
C-reactive protein [5] = target: T2, C-reactive protein; test: differential pulse voltammetry (electrochemical); P3 peptide covalently immobilised on TESPSA-silanised ITO, blocked with 1% BSA; 20 uL protein in PBS pH 7.4 for 30 min at room temperature; 1 mM Fc(CH2OH)2 in PBS as redox probe; drop of peak current fitted with the Hill equation, Kd = KA^n; conditions: both partners purified
[6] = immobilized on gold, assuming helical conformation

Row | Molecule | peptide-CRP complex by PM-IRRAS (in words) (C-reactive protein (CRP)) | fiber structure of peptide (in words) [1] | secondary structure on gold (in words) [2] | ELISA signal, fold over WT phage (C-reactive protein [3]) [fold] | further results
1 | SWFSDWDLELHA [P9] | the secondary structure of the complex may be affected | The fibers self-assemble into unique structures called twisted nanoribbons | presence of β-sheets; also recorded: contains β and α or disordered peptide chains |  | angle between the helical axis and the surface [2, 6]: about 48 °
2 | GGSDPEGMQGNY [P2] | the P2-CRP complex is formed, but the effect of the P2 on the CRP secondary structure is different compared to P9 | loose fibers, which are unordered and without forming a specific structure | higher amount of disordered structures in the secondary structure |  | orientation of helix axis (in words) [2, 6]: nearly parallel to the gold surface; amide I band position ([2]; peptide immobilized on gold): 1674 cm–1
3 | B1 |  |  |  | 16 | 
4 | B2 |  |  |  | 13 | 
5 | B3 |  |  |  |  | binding result (C-reactive protein [4]): binds
6 | B4 |  |  |  |  | Kd (C-reactive protein [5]): 35 ± 1.2 nM
